Assay results reported in patent US20260285875A1, “INHIBITORS OF PARG” (858 Therapeutics, Inc., priority 2023, published 2026).
pIC50: −log10 of the molar value.

target: T1, cellular PARG (Homo sapiens, UniProt Q86W56); experiment: Nuclear PAR accumulation assay (immunofluorescence high-content imaging, MMS-treated HeLa cells); type: cell-based; details: 1 hour compound then MMS 50 μg/mL for an additional hour
T1 construct: endogenous in cells; host or cells: HeLa
Protocol: HeLa cells were plated at 15,000 cells/well in a 96-well plate the day before compound treatment and then treated with varying concentrations of test compound and incubated for 1 hour at 37° C.+5% CO2. Following test compound treatment, methylmethane sulfonate (MMS) was added to a final concentration of 50 μg/mL and the cells were incubated for an additional hour. Following treatment, the cells were fixed with ice cold 95% methanol and the plates sealed and placed at -20° C. for 15 minutes. The cells were then washed once with phosphate buffered saline (PBS) and permeabilized with 0.10% Triton-X 100 for 20 minutes at room temperature. […] The cells were then washed three times with PBS before incubation with a fluorescently conjugated goat anti-mouse antibody (Invitrogen A32723) diluted 1:500 in 5% FBS+0.1% Tween-20+PBS for 1 hour at room temperature. The cells were again washed three times with PBS and the nuclei labeled by incubating with 1 μg/mL DAPI (4′,6-diamidino-2-phenylindole). Nuclear PAR accumulation was evaluated using high-content fluorescence microscopy. Four fields for each well were acquired at 20× magnification resulting in at least 1,000 cells analyzed per well. […] Both the average intensity per nucleus and percent PAR positive cells were quantified. […] Concentration-response-curves and IC50 values were generated using four parameter logistic curve fit software.
Representative data for exemplary compounds is presented in Table 32, Table 33 and Table 34.

T1 sequence (Q86W56 whole entry): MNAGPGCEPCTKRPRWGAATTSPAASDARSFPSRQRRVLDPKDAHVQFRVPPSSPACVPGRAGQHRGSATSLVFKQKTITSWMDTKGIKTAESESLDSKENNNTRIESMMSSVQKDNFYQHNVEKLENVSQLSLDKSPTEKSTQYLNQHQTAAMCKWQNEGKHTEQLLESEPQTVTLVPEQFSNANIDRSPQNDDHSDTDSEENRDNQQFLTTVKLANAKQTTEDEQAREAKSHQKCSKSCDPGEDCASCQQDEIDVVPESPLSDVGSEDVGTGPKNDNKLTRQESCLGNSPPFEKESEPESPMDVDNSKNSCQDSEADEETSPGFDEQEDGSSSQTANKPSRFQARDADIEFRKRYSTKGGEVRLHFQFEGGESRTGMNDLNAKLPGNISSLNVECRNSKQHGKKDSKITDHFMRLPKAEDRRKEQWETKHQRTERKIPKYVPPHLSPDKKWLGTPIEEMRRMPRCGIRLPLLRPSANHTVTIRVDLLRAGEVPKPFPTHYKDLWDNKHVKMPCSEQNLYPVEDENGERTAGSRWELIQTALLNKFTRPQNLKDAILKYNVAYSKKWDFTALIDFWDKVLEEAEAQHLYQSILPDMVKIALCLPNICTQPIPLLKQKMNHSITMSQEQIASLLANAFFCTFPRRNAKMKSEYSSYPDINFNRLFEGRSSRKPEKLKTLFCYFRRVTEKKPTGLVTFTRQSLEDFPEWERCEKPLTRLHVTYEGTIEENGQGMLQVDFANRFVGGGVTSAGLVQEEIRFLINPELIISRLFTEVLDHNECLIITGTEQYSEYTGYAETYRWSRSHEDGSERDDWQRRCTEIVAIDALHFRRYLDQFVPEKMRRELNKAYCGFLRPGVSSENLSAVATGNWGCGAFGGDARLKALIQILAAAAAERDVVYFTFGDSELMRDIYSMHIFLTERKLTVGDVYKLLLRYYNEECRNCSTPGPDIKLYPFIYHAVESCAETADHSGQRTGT

| SMILES | pIC50 |
| --- | --- |
| C#CC1(C)CN=C2N(Cc3cnn(C)c3)C(=O)c3cc(S(=O)(=O)NC4(C)CC4)ccc3N21 (single isomer, unassigned) [Example 271, 1-ethynyl-1-methyl-4-((1-methyl-1H-pyrazol-4-yl)methyl)-N-(1-methylcyclopropyl)-5-oxo-1,2,4,5-tetrahydroimidazo[1,2-a]quinazoline-7-sulfonamide] | > 7.00 |
| C#CC1(C)CN=C2N(Cc3cnn(C)c3)C(=O)c3cc(S(=O)(=O)NC4(C)CC4)ccc3N21 (single isomer, unassigned) [Example 272, 1-ethynyl-1-methyl-4-((1-methyl-1H-pyrazol-4-yl)methyl)-N-(1-methylcyclopropyl)-5-oxo-1,2,4,5-tetrahydroimidazo[1,2-a]quinazoline-7-sulfonamide] | > 7.00 |
| C[C@@H]1CN=C2N(Cc3cnn(C)c3)C(=O)c3cc(S(=O)(=O)NC4(C)CC4)cc(N4CCC4)c3N21 [Example 2, (R)-9-(azetidin-1-yl)-1-methyl-4-((1-methyl-1H-pyrazol-4-yl)methyl)-N-(1-methylcyclopropyl)-5-oxo-1,2,4,5-tetrahydroimidazo[1,2-a]quinazoline-7-sulfonamide] | > 7.00 |
| CCc1noc(C)c1CN1C(=O)c2cc(S(=O)(=O)NC3(C)CC3)ccc2N2C1=NC[C@H]2C [Example 5, (R)-4-((3-ethyl-5-methylisoxazol-4-yl)methyl)-1-methyl-N-(1-methylcyclopropyl)-5-oxo-1,2,4,5-tetrahydroimidazo[1,2-a]quinazoline-7-sulfonamide] | > 7.00 |
| C[C@@H]1CN=C2N(Cc3cnn(C)c3)C(=O)c3cc(S(=O)(=O)NC4(C)CC4)cc(-c4ccc(F)cn4)c3N21 [Example 6, (R)-9-(5-fluoropyridin-2-yl)-1-methyl-4-((1-methyl-1H-pyrazol-4-yl)methyl)-N-(1-methylcyclopropyl)-5-oxo-1,2,4,5-tetrahydroimidazo[1,2-a]quinazoline-7-sulfonamide] | > 7.00 |
| COCc1nocc1CN1C(=O)c2cc(S(=O)(=O)NC3(C)CC3)ccc2N2C1=NC[C@H]2C [Example 7, (R)-4-((3-(methoxymethyl)isoxazol-4-yl)methyl)-1-methyl-N-(1-methylcyclopropyl)-5-oxo-1,2,4,5-tetrahydroimidazo[1,2-a]quinazoline-7-sulfonamide] | 6.00 to 7.00 |
| Cc1noc(C2CC2)c1CN1C(=O)c2cc(S(=O)(=O)NC3(C)CC3)ccc2N2C1=NC[C@H]2C [Example 8, (R)-4-((5-cyclopropyl-3-methylisoxazol-4-yl)methyl)-1-methyl-N-(1-methylcyclopropyl)-5-oxo-1,2,4,5-tetrahydroimidazo[1,2-a]quinazoline-7-sulfonamide] | > 7.00 |
| Cn1cc(CN2C(=O)c3cc(S(=O)(=O)NC4(C)CC4)cc(C4=CCOCC4)c3N3CC(C)(C)N=C23)cn1 [Example 12, 9-(3,6-dihydro-2H-pyran-4-yl)-2,2-dimethyl-4-((1-methyl-1H-pyrazol-4-yl)methyl)-N-(1-methylcyclopropyl)-5-oxo-1,2,4,5-tetrahydroimidazo[1,2-a]quinazoline-7-sulfonamide] | > 7.00 |
| [2H]C([2H])(c1cnn(C)c1)N1C(=O)c2cc(S(=O)(=O)NC3(C)CC3)cc(Br)c2N2C1=NC[C@H]2C#CC1CC1 [Example 15, (R)-9-bromo-1-(cyclopropylethynyl)-4-((1-methyl-1H-pyrazol-4-yl)methyl-d2)-N-(1-methylcyclopropyl)-5-oxo-1,2,4,5-tetrahydroimidazo[1,2-a]quinazoline-7-sulfonamide] | > 7.00 |
| [2H]C([2H])(c1cnn(C)c1)N1C(=O)c2cc(S(=O)(=O)NC3(C)CC3)cc(Cl)c2N2C1=NC[C@H]2C#CC1CC1 [Example 16, (R)-9-chloro-1-(cyclopropylethynyl)-4-((1-methyl-1H-pyrazol-4-yl)methyl-d2)-N-(1-methylcyclopropyl)-5-oxo-1,2,4,5-tetrahydroimidazo[1,2-a]quinazoline-7-sulfonamide] | > 7.00 |
| Cn1cc(CN2C(=O)c3cc(S(=O)(=O)NC4(C)CC4)cc(-c4ccc(F)cc4)c3N3CC(C)(C)N=C23)cn1 [Example 17, 9-(4-fluorophenyl)-2,2-dimethyl-4-((1-methyl-1H-pyrazol-4-yl)methyl)-N-(1-methylcyclopropyl)-5-oxo-1,2,4,5-tetrahydroimidazo[1,2-a]quinazoline-7-sulfonamide] | > 7.00 |

The next lines start with the values.

| pIC50 | SMILES |
| --- | --- |
| > 7.00 | C[C@@H]1CN=C2N(Cc3cnn(C)c3)C(=O)c3cc(S(=O)(=O)NC4(C)CC4)cc(C4CC4)c3N21 [Example 1, (R)-9-cyclopropyl-1-methyl-4-((1-methyl-1H-pyrazol-4-yl)methyl)-N-(1-methylcyclopropyl)-5-oxo-1,2,4,5-tetrahydroimidazo[1,2-a]quinazoline-7-sulfonamide] |
| 6.00 to 7.00 | Cn1cc(CN2C(=O)c3cc(S(=O)(=O)NC4(C)CC4)cc(Br)c3N3CC(C)(C)N=C23)cn1 [Example 3, 9-bromo-2,2-dimethyl-4-((1-methyl-1H-pyrazol-4-yl)methyl)-N-(1-methylcyclopropyl)-5-oxo-1,2,4,5-tetrahydroimidazo[1,2-a]quinazoline-7-sulfonamide] |
| > 7.00 | CN1CC=C(c2cc(S(=O)(=O)NC3(C)CC3)cc3c2N2CC(C)(C)N=C2N(Cc2cnn(C)c2)C3=O)CC1 [Example 4, 2,2-dimethyl-9-(1-methyl-1,2,3,6-tetrahydropyridin-4-yl)-4-((1-methyl-1H-pyrazol-4-yl)methyl)-N-(1-methylcyclopropyl)-5-oxo-1,2,4,5-tetrahydroimidazo[1,2-a]quinazoline-7-sulfonamide] |
| 6.00 to 7.00 | COc1ccc(CN2C(=O)c3cc(S(=O)(=O)NC4(C)CC4)ccc3N3C2=NC[C@H]3C)cc1 [Example 9, (R)-4-(4-methoxybenzyl)-1-methyl-N-(1-methylcyclopropyl)-5-oxo-1,2,4,5-tetrahydroimidazo[1,2-a]quinazoline-7-sulfonamide] |
| > 7.00 | C[C@@H]1CN=C2N(Cc3cnn(C)c3)C(=O)c3cc(S(=O)(=O)NC4(C)CC4)cc(N4CCN(C)CC4)c3N21 [Example 10, (R)-1-methyl-4-((1-methyl-1H-pyrazol-4-yl)methyl)-N-(1-methylcyclopropyl)-9-(4-methylpiperazin-1-yl)-5-oxo-1,2,4,5-tetrahy droimidazo[1,2-a]quinazoline-7-sulfonamide] |
| > 7.00 | Cn1cc(CN2C(=O)c3cc(S(=O)(=O)NC4(C)CC4)cc(C4=CCCC4)c3N3CC(C)(C)N=C23)cn1 [Example 11, 9-(cyclopent-1-en-1-yl)-2,2-dimethyl-4-((1-methyl-1H-pyrazol-4-yl)methyl)-N-(1-methylcyclopropyl)-5-oxo-1,2,4,5-tetrahydroimidazo[1,2-a]quinazoline-7-sulfonamide] |
| 6.00 to 7.00 | C[C@@H]1CN=C2N(Cc3cnn(C)c3)C(=O)c3cc(S(=O)(=O)NC4(C)CC4)cc(N4CCNCC4)c3N21 [Example 13, (R)-1-methyl-4-((1-methyl-1H-pyrazol-4-yl)methyl)-N-(1-methylcyclopropyl)-5-oxo-9-(piperazin-1-yl)-1,2,4,5-tetrahydroimidazo[1,2-a]quinazoline-7-sulfonamide] |
| > 7.00 | [2H]C([2H])(c1cnn(C)c1)N1C(=O)c2cc(S(=O)(=O)NC3(C)CC3)ccc2N2C1=NC[C@H]2C#CC1CC1 [Example 14, (R)-1-(cyclopropylethynyl)-4-((1-methyl-1H-pyrazol-4-yl)methyl-d2)-N-(1-methylcyclopropyl)-5-oxo-1,2,4,5-tetrahydroimidazo[1,2-a]quinazoline-7-sulfonamide] |
